Each block holds one compound with its values, some of them ahead of it.
Tests used:
[1] = Wetting properties: water contact angle (CA) of fatty acid coatings; assay type: physicochemical; details: for Contact angle [°] (about 5% RSD): sprayed on stainless steel, room temperature; for Contact angle [°] (N = 3) / Contact angle [°]: spray coating; for Contact angle [°]: N = 5
Method: Wetting properties of the coatings were characterized by CA and CAH measurements, which were performed using an Attension Theta Lite tensiometer and high-purity water or ethylene glycol (99.5%, Merck, Germany) droplets of 7 μL volume. Spray coating was performed by spraying a selected organic solution of a selected fatty acid or a selected mixture of fatty acids on a desired surface using commercially available spraying gun. Gun adjustment is required to obtain the optimal coating properties. Exemplary adjustment parameters included distance from the treated surface, which was optimal at around 30 cm, and pulse duration, which was optimal at 1-5 seconds (e.g., 1-2 seconds). Other parameters are described hereinabove. […] Roughness (RMS) and wettability measurements were performed as described hereinabove.

Botrytis cinerea [2] = assay: Anti-fungal effect of neat fatty acids on PDA agar plates; assay type: cell-based; details: neat fatty acid at centre of PDA plate, 24° C., 72 hours
Method: Anti-fungal studies: Botrytis cinerea (B. cinerea) isolate B05.10 was collected from Vitis vinifera. Botrytis cinerea spores were plated on potato dextrose agar (PDA) plates, each fatty acid powder was placed in the center of the plate, and the plates were then incubated at 24° C. for 72 hours. In the case of caprylic acid, a hole was punched in the middle of the agar plate in order to contain its liquid form.

[3] = Roughness (RMS) of spray-deposited fatty acid layer, dynamic confocal microscope; assay type: physicochemical; details: for Roughness [μm] (about 10% RSD): sprayed on stainless steel, room temperature; for Roughness [μm] (N = 3) / Roughness [μm]: spray coating; for Roughness [μm]: N = 5
Method: Roughness and coating thickness were measured using a dynamic confocal microscope (Leica DCM3D); data processing was performed using SensoMap Turbo software. The coating thickness was calculated as the difference in height between the lower and upper levels of a confocal profile measured after a scratch implementation on the coating using a 25G needle. Spray coating was performed by spraying a selected organic solution of a selected fatty acid or a selected mixture of fatty acids on a desired surface using commercially available spraying gun. Gun adjustment is required to obtain the optimal coating properties. Exemplary adjustment parameters included distance from the treated surface, which was optimal at around 30 cm, and pulse duration, which was optimal at 1-5 seconds (e.g., 1-2 seconds). Other parameters are described hereinabove. Exemplary solutions were sprayed onto a surface of stainless steel, at room temperature. Roughness (RMS) and wettability measurements were performed as described hereinabove.

[4] = Contact angle hysteresis (CAH) of spray-coated fatty acid coatings; assay type: physicochemical; details: spray coating
Method: Wetting properties of the coatings were characterized by CA and CAH measurements, which were performed using an Attension Theta Lite tensiometer and high-purity water or ethylene glycol (99.5%, Merck, Germany) droplets of 7 μL volume.

E. coli = assay: Antimicrobial properties of fatty acid powders in liquid medium, drop-plate method; assay type: cell-based, Escherichia coli; details: 50 milligram SFA powder per 1 mL suspension, 24 hours at 37° C.; control 1.2 ± 0.2 · 10^8
Method: (§1) Antimicrobial studies: The antimicrobial properties of fatty acid powders were evaluated by in liquid medium via the drop-plate method. One bacteria colony (E. coli or L. innocua) was incubated overnight in 4 mL Nutrient Broth (NB) liquid medium (Sigma Aldrich, Israel) at 37° C. under agitation (150 rpm) until the bacteria reached a stationary phase (about 10^9 CFU/mL). Then, the overnight bacteria culture was diluted in fresh NB medium (about 10^7 CFU/mL) and incubated for an additional 2 hours to achieve a logarithmic culture. Next, the logarithmic culture was diluted to 10^4 CFU mL^−1 in 1:100 NB medium.
(§2) 1 mL of the diluted bacterial suspension was incubated with 50 milligram of different SFA powders at 37° C. for 24 hours in 24-well-plates under agitation (100 rpm). The cultures were decimally diluted and 10 μL drops were transferred onto NB solid agar substrate. The colonies were counted after 24 hours incubation at 37° C.
(§3) To study the intrinsic bactericidal effect of the tested SFAs against both Gram-positive and Gram-negative bacteria, incubation of bacteria culture with powdered SFAs followed by colony counting was performed. Table 3 hereinbelow presents E. coli and L. innocua count in colony-forming unit (CFU) per milliliter, estimated by the drop-plate method following incubation for 24 hours at 37° C. with the SFA powders in respective liquid media.

L. innocua = assay: as above; assay type: cell-based, Listeria innocua; details: 24 hours at 37° C.; for L. innocua [CFU mL^−1]: 50 milligram SFA powder per 1 mL suspension, control 2.4 ± 0.2 · 10^5; for L. innocua growth inhibition: powdered SFA
Method: as §1, §2, §3

Botrytis cinerea [5] = assay: Ex-planta rose petals, damaged area after Botrytis cinerea spore droplets; details: thick, medium and thin sprayed layers; 10^4 spores per milliliter, 30 μL droplets, 72 hours, room temperature
Method: Botrytis cinerea culture was diluted in potato dextrose broth (PDB) medium to a final concentration of 10^4 spores per milliliter. 30 μL droplets were put on the coated leaves and uncoated control leaves and left in room temperature protected from light for 72 hours. A damaged area can be observed below and surrounding each droplet. The damaged area was then measured using a caliper along its long and the short directions.

[6] = Diethyl ether (Tb 36.4), 20 mg/ml
[7] = Diethyl ether (Tb 36.4), 50 mg/ml
[8] = Diethyl ether (Tb 36.4), 50 mg/ml, listed as palmitic acid

Compound: C/C=C/C=C/C(=O)O [sorbic acid]
- properties of sprayed coating as single component ([1]; preliminary tests, data not shown): hydrophilic coating which was not stable over time
- anti-fungal effect against Botrytis cinerea growth (Botrytis cinerea [2]): significant growth inhibition

- Roughness [μm] (about 10% RSD) ([3]; EtOH, 10 mg/ml): 5.2 μm
- Contact angle [°] (about 5% RSD) ([1]; EtOH, 10 mg/ml): 113 °
Compound: CCCCCCCCCCCC(=O)O [Lauric acid]

Compound: CCCCCCCC(=O)O [caprylic acid, Caprylic acid]
- anti-fungal effect against Botrytis cinerea growth (Botrytis cinerea [2]): complete inhibition

Compound: CCCCCCCCCCCCCCCCCC(=O)O [Stearic acid]
- Roughness [μm] (N = 3) ([3]; Acetone (Tb 56.0), 10 mg/ml): 11.9 ± 3.7 μm
- Roughness [μm] ([3]; Acetone (Tb 56.0), 20 mg/ml): 7.5 ± 0.9 μm
- Roughness [μm] [3, 6]: 6.1 ± 1.0 μm
- Roughness [μm] (N = 3) [3, 7]: 8.0 ± 0.6 μm
- Roughness [μm] (N = 3) ([3]; EtOH (Tb 78.4), 10 mg/ml): 1.5 ± 0.06 μm
- Roughness [μm] ([3]; EtOH (Tb 78.4), 20 mg/ml): 1.1 ± 0.1 μm
- Roughness [μm] (about 10% RSD) ([3]; Acetone, 5 mg/ml): 1.3 μm
- Roughness [μm] (about 10% RSD) ([3]; Acetone, 20 mg/ml): 7.5 μm
- Roughness [μm] (about 10% RSD) ([3]; Diethyl ether, 15 mg/ml): 5.7 μm
- Roughness [μm] (about 10% RSD) ([3]; Diethyl ether, 20 mg/ml): 6.1 μm
- Roughness [μm] (about 10% RSD) ([3]; EtOH, 5 mg/ml): 0.7 μm
- Roughness [μm] (about 10% RSD) ([3]; EtOH, 20 mg/ml): 1.1 μm
- Roughness [μm] (about 10% RSD) ([3]; MeOH, 4 mg/ml): 3.5 μm
- effect of adding a food coloring agent on water contact angle ([1]; 0.02 gram/ml in diethyl ether plus coloring agent, spray-coated on glass): no change in water contact angle
- Contact angle [°] (N = 3) ([1]; Acetone (Tb 56.0), 10 mg/ml): 156.4 ± 1.5 °
- Contact angle [°] ([1]; Acetone (Tb 56.0), 20 mg/ml): 156.5 ± 5.5 °
- Contact angle [°] [1, 6]: 165.3 ± 1.1 °
- Contact angle [°] (N = 3) [1, 7]: 165.7 ± 4.4 °
- Contact angle [°] (N = 3) ([1]; EtOH (Tb 78.4), 10 mg/ml): 113.2 ± 4.6 °
- Contact angle [°] ([1]; EtOH (Tb 78.4), 20 mg/ml): 118.3 ± 5.8 °
- Contact angle [°] (about 5% RSD) ([1]; Acetone, 5 mg/ml): 145 °
- Contact angle [°] (about 5% RSD) ([1]; Acetone, 20 mg/ml): 156 °
- Contact angle [°] (about 5% RSD) ([1]; Diethyl ether, 15 mg/ml): 149 °
- Contact angle [°] (about 5% RSD) ([1]; Diethyl ether, 20 mg/ml): 165 °
- Contact angle [°] (about 5% RSD) ([1]; EtOH, 5 mg/ml): 110 °
- Contact angle [°] (about 5% RSD) ([1]; EtOH, 20 mg/ml): 118 °
- Contact angle [°] (about 5% RSD) ([1]; MeOH, 4 mg/ml): 136 °
- CAH [°] (N = 3) ([4]; Acetone (Tb 56.0), 10 mg/ml): 2.3 ± 1.2 °
- CAH [°] (N = 3) ([4]; Acetone (Tb 56.0), 20 mg/ml): 2.0 ± 1.7 °
- CAH [°] (N = 3) [4, 6]: 2.2 ± 1.1 °
- CAH [°] (N = 3) [4, 7]: 1.7 ± 1.4 °
- CAH [°] (N = 3) ([4]; EtOH (Tb 78.4), 10 mg/ml): 27.5 ± 7.0 °
- CAH [°] (N = 3) ([4]; EtOH (Tb 78.4), 20 mg/ml): 11 ± 1.2 °
- E. coli [CFU mL^−1] (E. coli): 1.8 ± 0.05 · 10^8 CFU mL^−1
- L. innocua [CFU mL^−1] (L. innocua): 1.9 ± 0.5 · 10^4 CFU mL^−1
- L. innocua growth inhibition (L. innocua): inhibited by an order of magnitude

Compound: CCCCCCCCCCCCCCCCCCCC(=O)O [Arachidic acid]
- Roughness [μm] (about 10% RSD) ([3]; Acetone, 2 mg/ml): 2.7 μm
- Roughness [μm] (about 10% RSD) ([3]; Diethyl ether, 10 mg/ml): 4.3 μm
- Roughness [μm] (about 10% RSD) ([3]; EtOH, 1 mg/ml): 0.9 μm
- Contact angle [°] (about 5% RSD) ([1]; Acetone, 2 mg/ml): 134 °
- Contact angle [°] (about 5% RSD) ([1]; Diethyl ether, 10 mg/ml): 152 °
- Contact angle [°] (about 5% RSD) ([1]; EtOH, 1 mg/ml): 119 °
- E. coli [CFU mL^−1] (E. coli): 9.6 ± 3.2 · 10^7 CFU mL^−1
- L. innocua [CFU mL^−1] (L. innocua): 0 CFU mL^−1
- L. innocua growth inhibition (L. innocua): completely inhibited

Compound: CCCCCCCCCCCCCCCC(=O)O [Palmitic acid]
- Roughness [μm] (N = 3) [3, 7]: 4.4 ± 0.4 μm
- Roughness [μm] (about 10% RSD) ([3]; Acetone, 15 mg/ml): 5.0 μm
- Roughness [μm] (about 10% RSD) ([3]; Diethyl ether, 10 mg/ml): 3.2 μm
- Roughness [μm] (about 10% RSD) ([3]; Diethyl ether, 20 mg/ml): 4.8 μm
- Roughness [μm] (about 10% RSD) ([3]; EtOH, 10 mg/ml): 2.3 μm
- Roughness [μm] (about 10% RSD) ([3]; MeOH, 10 mg/ml): 3.6 μm
- Contact angle [°] (N = 3) [1, 7]: 156.6 ± 2.3 °
- Contact angle [°] (N = 3) [1, 8]: 156.6 °
- CA angle ([1]; spray-coated): above 150 °
- Contact angle [°] (about 5% RSD) ([1]; Acetone, 15 mg/ml): 140 °
- Contact angle [°] (about 5% RSD) ([1]; Diethyl ether, 10 mg/ml): 145 °
- Contact angle [°] (about 5% RSD) ([1]; Diethyl ether, 20 mg/ml): 148 °
- Contact angle [°] (about 5% RSD) ([1]; EtOH, 10 mg/ml): 111 °
- Contact angle [°] (about 5% RSD) ([1]; MeOH, 10 mg/ml): 137 °
- CA ([1]; thermally deposited on glass): below 140 °
- CAH [°] (N = 3) [4, 7]: 11.1 ± 4.6 °
- CAH [°] (N = 3) [4, 8]: 11.1 °
- E. coli [CFU mL^−1] (E. coli): 1.4 ± 0.6 · 10^8 CFU mL^−1
- L. innocua [CFU mL^−1] (L. innocua): 1.7 ± 0.5 · 10^4 CFU mL^−1
- L. innocua growth inhibition (L. innocua): inhibited by an order of magnitude
- protection of rose petals against damage by Botrytis cinerea (Botrytis cinerea [5]): most effectively inhibit damage propagation
- anti-fungal effect against Botrytis cinerea growth (Botrytis cinerea [2]): do not present any anti-fungal effect

Compound: CCCCCCCCCCCCCCCCCCCCCC(=O)O [Behenic acid]
- Roughness [μm] (about 10% RSD) ([3]; Diethyl ether, 2 mg/ml): 4.2 μm
- Contact angle [°] (about 5% RSD) ([1]; Diethyl ether, 2 mg/ml): 156 °
- anti-fungal effect against Botrytis cinerea growth (Botrytis cinerea [2]): do not present any anti-fungal effect

- Roughness [μm] (about 10% RSD) ([3]; Acetone, 10 mg/ml): 4.2 μm
- Roughness [μm] (about 10% RSD) ([3]; Diethyl ether, 20 mg/ml): 5.6 μm
- Roughness [μm] (about 10% RSD) ([3]; EtOH, 10 mg/ml): 4.7 μm
- Contact angle [°] (about 5% RSD) ([1]; Acetone, 10 mg/ml): 120 °
- Contact angle [°] (about 5% RSD) ([1]; Diethyl ether, 20 mg/ml): 132 °
- Contact angle [°] (about 5% RSD) ([1]; EtOH, 10 mg/ml): 115 °
Compound: CCCCCCCCCCCCCC(=O)O [Myristic acid]

— US20240149298A1, “PREPARATION OF HYDROPHOBIC SURFACES” (Technion Research & Development Foundation Limited, priority 2021, published 2024)
